According to patent US8771652B2, “Methods of blocking ultraviolet radiation and promoting skin growth using terpenes and terpenoids” (New York University, priority 2009, dated 2014):
Where two headings read alike, the source gives them in different places.

Key:
melanoma cells = settings: topical pretreatment but not post-treatment; cited from earlier work
breast cancer = settings: rats, without any evidence of toxicity; cited from earlier work
[1] = tested on: UVB-induced non-melanoma tumors; settings: mouse, in vivo; cited from earlier work
[2] = tested on: human transplanted pancreatic adenocarcinomas; settings: in vivo; cited from earlier work
[3] = tested on: inflammation-relevant gene expression in rat skin; settings: cited from earlier work
colon cancer = settings: rats, 8 mg/kg, p<0.01; cited from earlier work
[4] = at concentrations in normal strength grapefruit juice (approximately 0.0035%, or 35 ppm); cited from earlier work
[5] = tested on: gene expression in mouse dorsal skin; test: Affymetrix gene expression microarray of mouse skin after terpene and UVR; assay type: in vivo; settings: for loricrin and vascular endothelial growth factor (VEGF) genes / matrix metalloproteinases: ingestion, animal models; for inflammation genes induced by UVR: per os daily for 4 days in 30 microL droplets prior to irradiation
Description: Animals for the histology and microarray analysis were euthanized 24 hours after 4 days of terpene pre-feed and the UVR exposure.
Gene expression microarray analysis was performed as follows: RNA was extracted from a 0.1 g sample of mouse skin and an equal quantity of keratinocytes by using the TRIZOL reagent (Invitrogen, Carlsbad, Calif., USA) according to the manufacture's instructions and 200 μg of total RNA was used for the isolation of poly A+ mRNA by using Oligotex mRNA mini columns (QIAGEN, Valencia, Calif., USA). The final centrifugation was performed after the incubation with 1/10 volume of 3.0 M NaOAc, 2.5 volumes of ethanol and 1 μl glycogen (Boehringer Mannheim GmbH, Mannheim, Germany) at −20° C. overnight. Then the pellet was resuspended in diethylpyrocarbonate (DEPC)-treated water. RNA was labeled with biotin and hybridized to a Mouse genome 430—2 GeneChip® microarray (Affymetrix, Inc. Santa Clara, Calif., USA). Data from the Affymetrix mouse expression array chip were imported into the BRB-ArrayTools Version 3.3.0 developed by the Biometric Research Branch of the U.S. National Cancer Institute for normalization and analysis. […] A value of P≦0.001 was chosen as statistically significant. […] For these calculations the entire list of genes on the Affymetrix (mouse 430—2) microarray was used as the reference list.
Mice were treated with either UVR or UVR+beta-damascenone, and samples of tissue were removed from the dorsal skin for RNA extraction and analysis on an Affymetrix Microarray System utilizing mouse whole genome array chips Affy 430—2. The UVR sample served as the control in this preliminary experiment.

[6] = tested on: epidermis (keratinocytes, keratin layer) of SKH1 hairless mice; test: Histology of skin after terpene pre-feed and UVR; assay type: in vivo, mouse; settings: for keratinocyte formation: ingestion, animal models
Description: Histopathological diagnosis was performed on the skin samples.
Animals for the histology and microarray analysis were euthanized 24 hours after 4 days of terpene pre-feed and the UVR exposure. Tissue samples from skin and other organs were frozen and prepared for histological diagnosis and for microarray analysis, which consisted of testing gene expression by utilizing Affymetrix mouse microarray chips containing about 39,000 transcripts with 45,101 probe sets.

[7] = tested on: skin of SKH1 hairless mice; test: Sunburn (erythema) prevention by terpenes with solar-spectrum UVR exposure; assay type: in vivo, mouse; settings: 4 daily 30 microL droplets before 15 minute exposure to 3.0 kJ/m2 UVR
Description: All experiments were performed with female hairless mice (SKH1) utilizing solar spectrum ultraviolet radiation (UVR). Each experiment was performed in triplicate including controls and UVR-exposed mice and included a total of 22 mice per experiment for a total of 66 mice. The protocol included untreated mice, UVR-irradiated mice as controls for the terpene treatments, UVR+terpene mice and terpene-only mice.
Four solar simulating FS-20 fluorescent lamps were used to deliver 3 kJ/m^2 measured by a calibrated International Light UV radiometer at the lamp distance between 20 to 24 cm. The UVR dose was selected to be just above the minimal erythemal dose for producing a ‘sunburn’ reaction in mouse skin (this is very similar to the minimal erythemal dose of fair-skinned humans).
Each terpene was given to each mouse per os (by mouth) in 15-30 μL droplets (˜15-30 μg) via micropipette once each day for 4 consecutive days prior to and/or subsequent to UVR exposure. Animals were observed and photographed every 24 hours for a period of 6-7 days after the irradiation. Each terpene was administered in pure form. […] The UVR exposure of 3 kJ/m^2 was delivered seven (7) days after the last dose was administered. The animals were observed and photographed. […] Liponeate, a triglyceride fraction of coconut oil was used as a diluent. Concentration 1, 10 and 100% were tested. […]

skin [8] = settings: guinea pig, in vivo; cited from earlier work
skin [9] = settings: in vivo; cited from earlier work
[10] = in vivo; cited from earlier work
skin [11] = settings: mouse, in vivo; cited from earlier work
skin [12] = settings: in vivo; cited from earlier work; remark: listed apart in the source

## C=C(C)[C@@H]1CC=C(CO)CC1 [perillyl alcohol]
Melanoma cells
  levels of UV-induced reactive oxygen species: markedly reduced
Breast cancer
  initiation of breast cancer: almost completely prevented
[1]
  UVB-induced non-melanoma tumors: reduction

## CC(C)=CCC/C(C)=C/CO [Geraniol]
[2]
  effectiveness against tumor growth relative to perillyl alcohol: about 5 fold

## vitamin A
[3]
  inflammation-relevant gene expression alterations caused by x-rays blocked: about 80%
[3]; unirradiated controls
  gene expression in controls: no effect

## Oc1ccc(C=Cc2cc(O)cc(O)c2)cc1 [resveratrol]
Colon cancer
  inhibition of colon cancer: 67%

## C=C(C)[C@H]1CC=C(C)CC1 [d-limonene]
Breast cancer
  initiation of breast cancer: almost completely prevented

## C=C(C)[C@@H]1CCC2=CC(=O)C[C@@H](C)[C@]2(C)C1 [nootkatone]
[4]
  toxicity: does not appear to be toxic
[5]
  loricrin and vascular endothelial growth factor (VEGF) genes: upregulation
  matrix metalloproteinases: downregulation
  inflammation genes induced by UVR: blocked
[6]
  keratinocyte formation: increased keratinocyte formation
[7]
  cutaneous inflammation and erythema associated with UVR exposure: blocked

## C/C=C/C(=O)C1=C(C)C=CCC1(C)C [beta-damascenone]
Skin [8]
  skin irritation: No skin irritation
[5]; UVR+terpene relative to UVR only, p<0.05
  significantly altered up-regulated category at level 4 of the Gene Ontology Tree: epidermal cell differentiation
[5]
  loricrin and vascular endothelial growth factor (VEGF) genes: upregulation
  matrix metalloproteinases: downregulation
  inflammation genes induced by UVR: blocked
[5]; terpene+UVR relative to UVR only
  inflammation-relevant genes: strongly down-regulated
[5]; terpene+UVR relative to UVR only, p<0.05
  number of gene categories significantly down-regulated: 13 categories
Skin [9]
  phototoxicity or photoallergenity: No phototoxicity or photoallergenity
[6]; histological observations
  keratinizing layer in the epidermis, terpene+UVR in comparison to UVR: greatly increased
[6]
  keratinocyte formation: increased keratinocyte formation
[10]
  LD50: greater than 2.0 g/kg
Skin [11]
  skin irritation: No skin irritation
[7]
  cutaneous inflammation and erythema associated with UVR exposure: blocked
Skin [12]
  skin irritation: No skin irritation
